Values after ≈ are worked out from the molar mass of the structure shown.
Columns and labels:
Assay in all cases: In vitro MIC, 2010 surveillance isolates
[1] = test system: K. pneumoniae ESBL+; assay type: cell-based, Klebsiella pneumoniae
[2] = test system: K. oxytoca; assay type: cell-based; parameters: MIC90: unit: µg/mL
[3] = test system: Acinetobacter spp; assay type: cell-based
[4] = test system: E. cloacae CeftazS; assay type: cell-based
[5] = test system: E. coli ESBL+; assay type: cell-based, Escherichia coli
[6] = test system: E. coli ESBL−; assay type: cell-based, Escherichia coli
[7] = test system: A. baumanii; assay type: cell-based
[8] = test system: Enterobacter spp; assay type: cell-based
[9] = test system: K. pneumoniae ESBL−; assay type: cell-based, Klebsiella pneumoniae
[10] = test system: E. cloacae CeftazR; assay type: cell-based

NCC[C@H](O)C(=O)N[C@@H]1C[C@H](N)[C@@H](O[C@H]2O[C@H](CN)[C@@H](O)[C@H](O)[C@H]2O)[C@H](O)[C@H]1O[C@H]1O[C@H](CO)[C@@H](O)[C@H](N)[C@H]1O [Amikacin]
% R (resistance) ([1]; Asia/Pac, Eucast breakpoints): 23.4%
MIC90 ([1]; Asia/Pac, N=124): > 32 µg/mL
% R (resistance) ([1]; Europe, Eucast breakpoints): 15.9%
MIC90 ([1]; Europe, N=151): 32 µg/mL (≈ 54.6 µM)
% R (resistance) ([1]; L. Amer, CLSI breakpoints): 14.8%
MIC90 ([1]; L. Amer, N=209): > 32 µg/mL
% R (resistance) ([1]; N America, CLSI breakpoints): 2.8%
MIC90 ([1]; N America, N=108): 32 µg/mL (≈ 54.6 µM)
% R (resistance) ([2]; Asia/Pac, Eucast breakpoints): 0%
MIC90 ([2]; Asia/Pac, N=17): 2 µg/mL (≈ 3.42 µM)
% R (resistance) ([2]; Europe, Eucast breakpoints): 0%
MIC90 ([2]; Europe, N=158): 2 µg/mL (≈ 3.42 µM)
% R (resistance) ([2]; L. Amer, CLSI breakpoints): 8%
MIC90 ([2]; L. Amer, N=25): 32 µg/mL (≈ 54.6 µM)
% R (resistance) ([2]; N America, CLSI breakpoints): 0%
MIC90 ([2]; N America, N=177): 2 µg/mL (≈ 3.42 µM)
% R (resistance) ([3]; Asia/Pac, Eucast breakpoints): 22.2%
% R (resistance) ([3]; Europe, Eucast breakpoints): 39.5%
MIC90 ([3]; Europe, N=43): > 32 µg/mL
% R (resistance) ([3]; L. Amer, CLSI breakpoints): 22.2%
% R (resistance) ([3]; N America, CLSI breakpoints): 9.5%
MIC90 ([3]; N America, N=42): 8 µg/mL (≈ 13.7 µM)
% R (resistance) ([4]; Asia/Pac, Eucast breakpoints): 1%
MIC90 ([4]; Asia/Pac, N=100): 2 µg/mL (≈ 3.42 µM)
% R (resistance) ([4]; Europe, Eucast breakpoints): 1.1%
MIC90 ([4]; Europe, N=183): 2 µg/mL (≈ 3.42 µM)
% R (resistance) ([4]; L. Amer, CLSI breakpoints): 0%
MIC90 ([4]; L. Amer, N=57): 16 µg/mL (≈ 27.3 µM)
% R (resistance) ([4]; N America, CLSI breakpoints): 0%
MIC90 ([4]; N America, N=210): 2 µg/mL (≈ 3.42 µM)
% R (resistance) ([5]; Asia/Pac, Eucast breakpoints): 8.2%
MIC90 ([5]; Asia/Pac, N=219): 8 µg/mL (≈ 13.7 µM)
% R (resistance) ([5]; Europe, Eucast breakpoints): 2.2%
MIC90 ([5]; Europe, N=274): 8 µg/mL (≈ 13.7 µM)
% R (resistance) ([5]; L. Amer, CLSI breakpoints): 1.2%
MIC90 ([5]; L. Amer, N=168): 8 µg/mL (≈ 13.7 µM)
% R (resistance) ([5]; N America, CLSI breakpoints): 0.7%
MIC90 ([5]; N America, N=134): 8 µg/mL (≈ 13.7 µM)
% R (resistance) ([6]; Asia/Pac, Eucast breakpoints): 0.4%
MIC90 ([6]; Asia/Pac, N=282): 4 µg/mL (≈ 6.83 µM)
% R (resistance) ([6]; Europe, Eucast breakpoints): 0.3%
MIC90 ([6]; Europe, N=1533): 4 µg/mL (≈ 6.83 µM)
% R (resistance) ([6]; L. Amer, CLSI breakpoints): 0%
MIC90 ([6]; L. Amer, N=389): 4 µg/mL (≈ 6.83 µM)
% R (resistance) ([6]; N America, CLSI breakpoints): 0%
MIC90 ([6]; N America, N=1172): 4 µg/mL (≈ 6.83 µM)
% R (resistance) ([7]; Asia/Pac, Eucast breakpoints): 74.9%
MIC90 ([7]; Asia/Pac, N=275): > 32 µg/mL
% R (resistance) ([7]; Europe, Eucast breakpoints): 58.6%
MIC90 ([7]; Europe, N=145): > 32 µg/mL
% R (resistance) ([7]; L. Amer, CLSI breakpoints): 57.5%
MIC90 ([7]; L. Amer, N=275): > 32 µg/mL
% R (resistance) ([7]; N America, CLSI breakpoints): 42.9%
MIC90 ([7]; N America, N=154): > 32 µg/mL
% R (resistance) ([8]; Asia/Pac, Eucast breakpoints): 3.8%
MIC90 ([8]; Asia/Pac, N=52): 2 µg/mL (≈ 3.42 µM)
% R (resistance) ([8]; Europe, Eucast breakpoints): 0%
MIC90 ([8]; Europe, N=82): 4 µg/mL (≈ 6.83 µM)
% R (resistance) ([8]; L. Amer, CLSI breakpoints): 0%
MIC90 ([8]; L. Amer, N=42): 4 µg/mL (≈ 6.83 µM)
% R (resistance) ([8]; N America, CLSI breakpoints): 1%
MIC90 ([8]; N America, N=101): 2 µg/mL (≈ 3.42 µM)
% R (resistance) ([9]; Asia/Pac, Eucast breakpoints): 0.5%
MIC90 ([9]; Asia/Pac, N=189): 2 µg/mL (≈ 3.42 µM)
% R (resistance) ([9]; Europe, Eucast breakpoints): 0.3%
MIC90 ([9]; Europe, N=361): 2 µg/mL (≈ 3.42 µM)
% R (resistance) ([9]; L. Amer, CLSI breakpoints): 0%
MIC90 ([9]; L. Amer, N=160): 2 µg/mL (≈ 3.42 µM)
% R (resistance) ([9]; N America, CLSI breakpoints): 0%
MIC90 ([9]; N America, N=671): 2 µg/mL (≈ 3.42 µM)
% R (resistance) ([10]; Asia/Pac, Eucast breakpoints): 9.5%
MIC90 ([10]; Asia/Pac, N=63): 16 µg/mL (≈ 27.3 µM)
% R (resistance) ([10]; Europe, Eucast breakpoints): 1.4%
MIC90 ([10]; Europe, N=72): 8 µg/mL (≈ 13.7 µM)
% R (resistance) ([10]; L. Amer, CLSI breakpoints): 7.1%
MIC90 ([10]; L. Amer, N=42): 16 µg/mL (≈ 27.3 µM)
% R (resistance) ([10]; N America, CLSI breakpoints): 0%
MIC90 ([10]; N America, N=77): 4 µg/mL (≈ 6.83 µM)

CO/N=C(\C(=O)N[C@@H]1C(=O)N2C(C(=O)[O-])=C(C[N+]3(C)CCCC3)CS[C@H]12)c1csc(N)n1 [Cefepime]
% R (resistance) ([1]; Asia/Pac, Eucast breakpoints): 65.3%
MIC90 ([1]; Asia/Pac, N=124): > 16 µg/mL
% R (resistance) ([1]; Europe, Eucast breakpoints): 76.8%
MIC90 ([1]; Europe, N=151): > 16 µg/mL
% R (resistance) ([1]; L. Amer, CLSI breakpoints): 69.4%
MIC90 ([1]; L. Amer, N=209): > 16 µg/mL
% R (resistance) ([1]; N America, CLSI breakpoints): 43.5%
MIC90 ([1]; N America, N=108): > 16 µg/mL
% R (resistance) ([2]; Asia/Pac, Eucast breakpoints): 23.5%
MIC90 ([2]; Asia/Pac, N=17): > 16 µg/mL
% R (resistance) ([2]; Europe, Eucast breakpoints): 4.4%
MIC90 ([2]; Europe, N=158): 1 µg/mL (≈ 2.08 µM)
MIC90 ([2]; L. Amer, N=25): >16 (16)
% R (resistance) ([2]; N America, CLSI breakpoints): 0%
MIC90 ([2]; N America, N=177): 0.25 µg/mL (≈ 0.52 µM)
MIC90 ([3]; Europe, N=43): > 16 µg/mL
% R (resistance) ([3]; L. Amer, CLSI breakpoints): 55.6%
% R (resistance) ([3]; N America, CLSI breakpoints): 16.7%
MIC90 ([3]; N America, N=42): > 16 µg/mL
% R (resistance) ([4]; Asia/Pac, Eucast breakpoints): 2%
MIC90 ([4]; Asia/Pac, N=100): ≤ 0.12 µg/mL
% R (resistance) ([4]; Europe, Eucast breakpoints): 1.1%
MIC90 ([4]; Europe, N=183): 0.25 µg/mL (≈ 0.52 µM)
% R (resistance) ([4]; L. Amer, CLSI breakpoints): 10.5%
MIC90 ([4]; L. Amer, N=57): > 16 µg/mL
% R (resistance) ([4]; N America, CLSI breakpoints): 0%
MIC90 ([4]; N America, N=210): ≤ 0.12 µg/mL
% R (resistance) ([5]; Asia/Pac, Eucast breakpoints): 73.5%
MIC90 ([5]; Asia/Pac, N=219): > 16 µg/mL
% R (resistance) ([5]; Europe, Eucast breakpoints): 69%
MIC90 ([5]; Europe, N=274): > 16 µg/mL
% R (resistance) ([5]; L. Amer, CLSI breakpoints): 47%
MIC90 ([5]; L. Amer, N=168): > 16 µg/mL
% R (resistance) ([5]; N America, CLSI breakpoints): 38.8%
MIC90 ([5]; N America, N=134): > 16 µg/mL
% R (resistance) ([6]; Asia/Pac, Eucast breakpoints): 0%
MIC90 ([6]; Asia/Pac, N=282): 1 µg/mL (≈ 2.08 µM)
% R (resistance) ([6]; Europe, Eucast breakpoints): 0.1%
MIC90 ([6]; Europe, N=1533): ≤ 0.12 µg/mL
% R (resistance) ([6]; L. Amer, CLSI breakpoints): 0%
MIC90 ([6]; L. Amer, N=389): ≤ 0.12 µg/mL
% R (resistance) ([6]; N America, CLSI breakpoints): 0%
MIC90 ([6]; N America, N=1172): ≤ 0.12 µg/mL
MIC90 ([7]; Asia/Pac, N=275): > 16 µg/mL
MIC90 ([7]; Europe, N=145): > 16 µg/mL
% R (resistance) ([7]; L. Amer, CLSI breakpoints): 78.9%
MIC90 ([7]; L. Amer, N=275): > 16 µg/mL
% R (resistance) ([7]; N America, CLSI breakpoints): 61.7%
MIC90 ([7]; N America, N=154): > 16 µg/mL
% R (resistance) ([8]; Asia/Pac, Eucast breakpoints): 5.8%
MIC90 ([8]; Asia/Pac, N=52): 1 µg/mL (≈ 2.08 µM)
% R (resistance) ([8]; Europe, Eucast breakpoints): 2.4%
MIC90 ([8]; Europe, N=82): 1 µg/mL (≈ 2.08 µM)
% R (resistance) ([8]; L. Amer, CLSI breakpoints): 14.3%
MIC90 ([8]; L. Amer, N=42): > 16 µg/mL
% R (resistance) ([8]; N America, CLSI breakpoints): 1%
MIC90 ([8]; N America, N=101): 0.5 µg/mL (≈ 1.04 µM)
% R (resistance) ([9]; Asia/Pac, Eucast breakpoints): 0%
MIC90 ([9]; Asia/Pac, N=189): ≤ 0.12 µg/mL
% R (resistance) ([9]; Europe, Eucast breakpoints): 0%
MIC90 ([9]; Europe, N=361): ≤ 0.12 µg/mL
% R (resistance) ([9]; L. Amer, CLSI breakpoints): 0%
MIC90 ([9]; L. Amer, N=160): ≤ 0.12 µg/mL
% R (resistance) ([9]; N America, CLSI breakpoints): 0%
MIC90 ([9]; N America, N=671): ≤ 0.12 µg/mL
% R (resistance) ([10]; Asia/Pac, Eucast breakpoints): 38.1%
MIC90 ([10]; Asia/Pac, N=63): > 16 µg/mL
% R (resistance) ([10]; Europe, Eucast breakpoints): 25%
MIC90 ([10]; Europe, N=72): > 16 µg/mL
% R (resistance) ([10]; L. Amer, CLSI breakpoints): 26.2%
MIC90 ([10]; L. Amer, N=42): > 16 µg/mL
% R (resistance) ([10]; N America, CLSI breakpoints): 6.5%
MIC90 ([10]; N America, N=77): 16 µg/mL (≈ 33.3 µM)
